Laboratory results: the NIST ThermoML archive (doi:10.1021/je049672l)
Values joined by “and” are separate entries in the source; they are usually repeats but may differ in a detail not shown here. Equal values may be shown once.

Conditions: for mass density: Vibrating tube method; for vapor or sublimation pressure: Closed cell (Static) method

CCCC [butane]
Fluid (supercritical or subcritical phases)
Conditions	mass density [kg/m3]
240 K, 486 kPa	635.96
240 K, 1007.3 kPa	636.47
240 K, 1510.1 kPa	636.95
240 K, 2000.1 kPa	637.42
240 K, 2570.2 kPa	637.97
240 K, 3029.5 kPa	638.41
240 K, 3512.2 kPa	638.87
240 K, 4001.2 kPa	639.35
240 K, 4487.8 kPa	639.8
240 K, 5029 kPa	640.31
240 K, 5540.8 kPa	640.78
240 K, 5990.8 kPa	641.21
240 K, 6517.3 kPa	641.67
240 K, 7115.6 kPa	642.22
260 K, 481 kPa	615.74
260 K, 998.4 kPa	616.36
260 K, 1521.8 kPa	616.98
260 K, 2020.3 kPa	617.55
260 K, 2488.3 kPa	618.09
260 K, 3039.4 kPa	618.72
260 K, 3506.9 kPa	619.26
260 K, 3997 kPa	619.8
260 K, 4494.6 kPa	620.36
260 K, 5004.2 kPa	620.91
260 K, 5503.1 kPa	621.46
260 K, 6003.3 kPa	622.01
260 K, 6478.7 kPa	622.54
260 K, 6989.2 kPa	623.08
280 K, 144.7 kPa	593.92
280 K, 173.2 kPa	593.97
280 K, 493.9 kPa	594.44
280 K, 992 kPa	595.16
280 K, 1472.7 kPa	595.86
280 K, 1987.6 kPa	596.59
280 K, 2465.8 kPa	597.26
280 K, 2985.5 kPa	597.98
280 K, 3516.7 kPa	598.71
280 K, 3974.9 kPa	599.34
280 K, 4513.6 kPa	600.07
280 K, 4975 kPa	600.69
280 K, 5428.9 kPa	601.3
280 K, 5929.2 kPa	601.98
280 K, 6499.1 kPa	602.71
280 K, 7020 kPa	603.37
300 K, 268.9 kPa	571.14
300 K, 315.1 kPa	571.23
300 K, 493.4 kPa	571.55
300 K, 992.8 kPa	572.45
300 K, 1491.3 kPa	573.35
300 K, 2013.4 kPa	574.26
300 K, 2499.1 kPa	575.12
300 K, 2964 kPa	575.92
300 K, 3499.9 kPa	576.83
300 K, 3992.8 kPa	577.66
300 K, 4525.1 kPa	578.55
300 K, 4990.4 kPa	579.31
300 K, 5543.6 kPa	580.23
300 K, 5951.1 kPa	580.88
300 K, 6459.3 kPa	581.65
300 K, 7089.3 kPa	582.62
320 K, 515.9 kPa	546.74
320 K, 1002.9 kPa	547.89
320 K, 1502.7 kPa	549.06
320 K, 2011.8 kPa	550.22
320 K, 2517.1 kPa	551.36
320 K, 3010.6 kPa	552.45
320 K, 3523.1 kPa	553.55
320 K, 4015.6 kPa	554.6
320 K, 4017.2 kPa	554.6
320 K, 4513.3 kPa	555.64
320 K, 4992.8 kPa	556.63
320 K, 5473.8 kPa	557.6
320 K, 6031 kPa	558.74
320 K, 6510.5 kPa	559.67
320 K, 6982.1 kPa	560.62
340 K, 761.5 kPa	519.87
340 K, 791.7 kPa	519.97
340 K, 989.9 kPa	520.64
340 K, 1519.5 kPa	522.33
340 K, 1975.7 kPa	523.74
340 K, 2514.4 kPa	525.36
340 K, 3012.7 kPa	526.82
340 K, 3504.4 kPa	528.23
340 K, 4034.7 kPa	529.7
340 K, 4437.7 kPa	530.79
340 K, 4964.4 kPa	532.19
340 K, 5471 kPa	533.51
340 K, 5975.4 kPa	534.78
340 K, 6451.2 kPa	535.97
340 K, 7014.5 kPa	537.36
360 K, 1181.7 kPa	490.31
360 K, 1215.8 kPa	490.48
360 K, 1507.5 kPa	491.85
360 K, 2006.4 kPa	494.12
360 K, 2493.7 kPa	496.23
360 K, 2995.1 kPa	498.32
360 K, 3489.7 kPa	500.29
360 K, 3993.1 kPa	502.23
360 K, 4488.7 kPa	504.06
360 K, 4984.1 kPa	505.83
360 K, 5504.8 kPa	507.65
360 K, 5979.4 kPa	509.32
360 K, 6486.7 kPa	510.96
360 K, 7012.4 kPa	512.64
380 K, 1845.2 kPa	455.88
380 K, 1925.7 kPa	456.51
380 K, 2007.2 kPa	457.14
380 K, 2503.7 kPa	460.77
380 K, 3010.6 kPa	464.17
380 K, 3502 kPa	467.25
380 K, 3999.9 kPa	470.18
380 K, 4508.9 kPa	473
380 K, 5015.7 kPa	475.66
380 K, 5511.1 kPa	478.12
380 K, 6013.8 kPa	480.51
380 K, 6534.9 kPa	482.88
380 K, 6978 kPa	484.82

Liquid
Conditions	mass density	vapor or sublimation pressure
240 K	634.72 kg/m3 and 634.79 kg/m3	26.2 kPa and 23.9 kPa
260 K	615.48 kg/m3	59.9 kPa
280 K	593.89 kg/m3	131.5 kPa
300 K	571.03 kg/m3	256.4 kPa
320 K	546.56 kg/m3	454.8 kPa
340 K	520.07 kg/m3 and 519.84 kg/m3	750.5 kPa and 751 kPa
360 K	490.27 kg/m3 and 490.24 kg/m3	1168.5 kPa and 1168.1 kPa
380 K	455 kg/m3	1737.4 kPa
